Assay results from PubChem BioAssay AID330 (DTP/NCI, 2004).
Several values for one entry are separate records, joined by “and”; a condition that tells them apart may be missing. Identical values can stand only once. Toxic doses and inconclusive results are not listed.

System: P388 leukemia ip, CD2F1 mice, survival T/C
Assay: NCI In Vivo Anticancer Drug Screen. Data for tumor model P388 Leukemia (intraperitoneal) in CD2F1 (CDF1) mice
Conditions: endpoint: median survival time, higher = longer survival
Method in brief: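 Mice carrying the transplanted tumor received test compound or vehicle. Survival was recorded in each group, and the value is the treated-group measurement divided by that of the vehicle-treated control group.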

[1] = dose: 100.0 mg/kg/injection, schedule: Q01DX009 (ip), vehicle: Klucel (hydroxypropylcellulose) (HPC)
[2] = dose: 200.0 mg/kg/injection, schedule: Q01DX009 (ip), vehicle: Klucel (hydroxypropylcellulose) (HPC)
[3] = dose: 100.0 mg/kg/injection, schedule: Q01DX009 (ip), vehicle: saline
[4] = dose: 200.0 mg/kg/injection, schedule: Q01DX009 (ip), vehicle: saline
[5] = dose: 50.0 mg/kg/injection, schedule: Q01DX005 (ip), vehicle: Klucel (hydroxypropylcellulose) (HPC)
[6] = dose: 100.0 mg/kg/injection, schedule: Q01DX005 (ip), vehicle: Klucel (hydroxypropylcellulose) (HPC)
[7] = dose: 200.0 mg/kg/injection, schedule: Q01DX005 (ip), vehicle: Klucel (hydroxypropylcellulose) (HPC)
[8] = dose: 60.0 mg/kg/injection, schedule: Q01DX005 (ip), vehicle: Klucel (hydroxypropylcellulose) (HPC)
[9] = dose: 120.0 mg/kg/injection, schedule: Q01DX005 (ip), vehicle: Klucel (hydroxypropylcellulose) (HPC)
[10] = dose: 240.0 mg/kg/injection, schedule: Q01DX005 (ip), vehicle: Klucel (hydroxypropylcellulose) (HPC)
[11] = dose: 60.0 mg/kg/injection, schedule: Q01DX005 (ip), vehicle: saline with Tween-80
[12] = dose: 120.0 mg/kg/injection, schedule: Q01DX005 (ip), vehicle: saline with Tween-80
[13] = dose: 240.0 mg/kg/injection, schedule: Q01DX005 (ip), vehicle: saline with Tween-80

COc1ccccc1N=Nc1c(O)n(-c2ccccc2Cl)c(=S)n(-c2ccccc2OC)c1=O
T/C (dose: 50.0 mg/kg/injection, schedule: Q01DX001 (ip), vehicle: Klucel (hydroxypropylcellulose) (HPC)): 102 % of control | T/C (dose: 100.0 mg/kg/injection, schedule: Q01DX001 (ip), vehicle: Klucel (hydroxypropylcellulose) (HPC)): 102 % of control | T/C (dose: 200.0 mg/kg/injection, schedule: Q01DX001 (ip), vehicle: Klucel (hydroxypropylcellulose) (HPC)): 101 % of control

ClC12CCC(c3ccccc3)(CC1)CC2
T/C (dose: 50.0 mg/kg/injection, schedule: Q01DX009 (ip), vehicle: Klucel (hydroxypropylcellulose) (HPC)): 105 % of control | T/C [1]: 108 % of control | T/C [2]: 99 % of control

C=C1SC(=Nc2cccc(OC)c2)N(c2nc(Cl)nc(Cl)n2)C1(C)C
T/C (dose: 50.0 mg/kg/injection, schedule: Q01DX009 (ip), vehicle: saline): 99 % of control | T/C [3]: 102 % of control | T/C [4]: 98 % of control

Cc1cc(=O)oc2cc3oc4c(c3cc12)CCCC4
T/C [5]: 97 % of control | T/C [6]: 92 % of control | T/C [7]: 88 % of control

CN1C(=O)N(C)C2CC(=O)c3c(ccc4c3ncn4C)N2C1=O (stereo not given)
T/C [8]: 104 % of control | T/C [9]: 108 % of control | T/C [10]: 114 % of control

O=C1C=CC(=O)C1=Cc1ccc([N+](=O)[O-])o1
T/C (dose: 0.78 mg/kg/injection, schedule: Q04DX002 (ip), vehicle: saline with Tween-80): 106 % of control | T/C (dose: 1.56 mg/kg/injection, schedule: Q04DX002 (ip), vehicle: saline with Tween-80): 97 % of control | T/C (dose: 3.12 mg/kg/injection, schedule: Q04DX002 (ip), vehicle: saline with Tween-80): 97 % of control

O=c1c(N=Nc2ccccc2)c(C(O)C(O)CO)[nH]n1-c1ccc(Cl)cc1 (stereo not given)
T/C (dose: 63.5 mg/kg/injection, schedule: Q01DX001 (ip), vehicle: Klucel (hydroxypropylcellulose) (HPC)): 87 % of control | T/C (dose: 127.0 mg/kg/injection, schedule: Q01DX001 (ip), vehicle: Klucel (hydroxypropylcellulose) (HPC)): 89 % of control | T/C (dose: 254.0 mg/kg/injection, schedule: Q01DX001 (ip), vehicle: Klucel (hydroxypropylcellulose) (HPC)): 100 % of control

CNCC(OC)c1ccc(O)c(O)c1 (stereo not given)
T/C [3]: 104 % of control and 107 % of control | T/C [4]: 107 % of control and 118 % of control

COc1ccc(C2CN(C(=O)c3ccccc3)N=C(c3ccccc3)O2)cc1 (stereo not given)
T/C [5]: 100 % of control | T/C [6]: 101 % of control | T/C [7]: 94 % of control

[Cl][Sn]([Cl])([c]1ccccc1)[c]1ccccc1.c1ccc2nc(-c3ccc4ccccc4n3)ccc2c1
T/C (dose: 7.5 mg/kg/injection, schedule: Q01DX005 (ip), vehicle: Klucel (hydroxypropylcellulose) (HPC)): 100 % of control and 106 % of control | T/C (dose: 15.0 mg/kg/injection, schedule: Q01DX005 (ip), vehicle: Klucel (hydroxypropylcellulose) (HPC)): 100 % of control and 113 % of control | T/C (dose: 30.0 mg/kg/injection, schedule: Q01DX005 (ip), vehicle: Klucel (hydroxypropylcellulose) (HPC)): 104 % of control and 117 % of control

Cc1cccc(Cl)c1NC(=O)NCCCN1CCCCC1C (stereo not given)
T/C [11]: 94 % of control | T/C [12]: 87 % of control

CC(C)=NOC(=O)Nc1ccc(F)cc1
T/C [8]: 93 % of control | T/C [9]: 103 % of control | T/C [10]: 106 % of control

Cc1ccccc1Nc1c2ccccc2nc2ccccc12
T/C (dose: 12.5 mg/kg/injection, schedule: Q04DX003 (ip), vehicle: saline with Tween-80): 95 % of control | T/C (dose: 25.0 mg/kg/injection, schedule: Q04DX003 (ip), vehicle: saline with Tween-80): 95 % of control | T/C (dose: 50.0 mg/kg/injection, schedule: Q04DX003 (ip), vehicle: saline with Tween-80): 104 % of control

Cc1ccc(NC(=O)c2cc3ccccc3cc2O)c(C)c1.Cc1ccc(NC(=O)c2cc3ccccc3cc2[O-])c(C)c1.[Ni+2]
T/C (dose: 1.56 mg/kg/injection, schedule: Q01DX009 (ip), vehicle: saline with Tween-80): 109 % of control | T/C (dose: 3.12 mg/kg/injection, schedule: Q01DX009 (ip), vehicle: saline with Tween-80): 89 % of control | T/C (dose: 6.12 mg/kg/injection, schedule: Q01DX009 (ip), vehicle: saline with Tween-80): 97 % of control | T/C (dose: 6.25 mg/kg/injection, schedule: Q01DX009 (ip), vehicle: saline): 108 % of control

Nc1ccc2c(SCCCCCCSc3c4ccccc4nc4cc(N)ccc34)c3ccccc3nc2c1
T/C [11]: 100 % of control | T/C [12]: 101 % of control | T/C [13]: 104 % of control

OCC1(c2ccncc2)OCCO1
T/C (dose: 50.0 mg/kg/injection, schedule: Q01DX005 (ip), vehicle: saline): 101 % of control | T/C (dose: 100.0 mg/kg/injection, schedule: Q01DX005 (ip), vehicle: saline): 104 % of control | T/C (dose: 200.0 mg/kg/injection, schedule: Q01DX005 (ip), vehicle: saline): 92 % of control

CC1OC(OC23C(=O)CC(C)(O)CC2(O)C=CC2=C3C(=O)c3ccc(C4CC(OC5CCC(OC6CC(O)C(O)C(C)O6)C(C)O5)C(O)C(C)O4)c(O)c3C2=O)CCC1O (stereo not given)
T/C (dose: 1.0 mg/kg/injection, schedule: Q01DX005 (ip), vehicle: DMSO): 104 % of control | T/C (dose: 2.0 mg/kg/injection, schedule: Q01DX005 (ip), vehicle: DMSO): 105 % of control | T/C (dose: 4.0 mg/kg/injection, schedule: Q01DX005 (ip), vehicle: DMSO): 99 % of control | T/C (dose: 6.25 mg/kg/injection, schedule: Q04DX003 (ip), vehicle: Klucel (hydroxypropylcellulose) (HPC)): 100 % of control | T/C (dose: 12.5 mg/kg/injection, schedule: Q04DX003 (ip), vehicle: Klucel (hydroxypropylcellulose) (HPC)): 91 % of control | T/C (dose: 25.0 mg/kg/injection, schedule: Q04DX003 (ip), vehicle: Klucel (hydroxypropylcellulose) (HPC)): 100 % of control

O=c1c2ccccc2oc2nc3ccccc3nc12
T/C [8]: 101 % of control | T/C [9]: 103 % of control

O=C(C[n+]1ccnc2ccccc21)c1ccc(Cl)cc1
T/C [5]: 95 % of control | T/C [6]: 100 % of control | T/C [7]: 106 % of control

O=P(OCc1ccccc1)(N(CCCl)CCCl)N1CCN(P(=O)(OCc2ccccc2)N(CCCl)CCCl)CC1 (stereo not given)
T/C (dose: 100.0 mg/kg/injection, schedule: Q01DX009 (ip), vehicle: saline with Tween-80): 150 % of control | T/C (dose: 100.0 mg/kg/injection, schedule: Q04DX003 (ip), vehicle: saline with Tween-80): 116 % of control

CN(C)c1nc(Cl)nc2c1nc(Cl)n2C1CCCCO1 (stereo not given)
T/C [5]: 93 % of control | T/C [6]: 90 % of control | T/C [7]: 102 % of control

CC(=O)OC1(OC(C)=O)C=C2OCOC2=CC1=O
T/C (dose: 8.75 mg/kg/injection, schedule: Q01DX005 (ip), vehicle: Klucel (hydroxypropylcellulose) (HPC)): 91 % of control | T/C (dose: 17.5 mg/kg/injection, schedule: Q01DX005 (ip), vehicle: Klucel (hydroxypropylcellulose) (HPC)): 103 % of control

O=c1oc(-c2ccccc2I)ns1
T/C [1]: 113 % of control | T/C [2]: 114 % of control | T/C (dose: 400.0 mg/kg/injection, schedule: Q01DX009 (ip), vehicle: Klucel (hydroxypropylcellulose) (HPC)): 96 % of control

CC(C)CCC(=O)c1ccoc1
T/C (dose: 0.46 mg/kg/injection, schedule: Q01DX005 (ip), vehicle: saline with Tween-80): 103 % of control | T/C (dose: 0.93 mg/kg/injection, schedule: Q01DX005 (ip), vehicle: saline with Tween-80): 97 % of control | T/C (dose: 1.87 mg/kg/injection, schedule: Q01DX005 (ip), vehicle: saline with Tween-80): 97 % of control | T/C (dose: 3.75 mg/kg/injection, schedule: Q01DX005 (ip), vehicle: saline with Tween-80): 89 % of control

O=C(CNC(=O)c1ccccc1)N/N=C/c1c(O)ccc2ccccc12
T/C [11]: 95 % of control | T/C [12]: 93 % of control | T/C [13]: 101 % of control

COc1ccc2c(c1)N(S(=O)(=O)c1ccc(C)cc1)C/C(=C\N1CCN(c3ccccc3)CC1)C2=O
T/C [5]: 96 % of control | T/C [6]: 98 % of control | T/C [7]: 91 % of control

Cn1cc(/C=C/[N+](=O)[O-])c2ccccc21
T/C (dose: 100.0 mg/kg/injection, schedule: Q04DX003 (ip), vehicle: Klucel (hydroxypropylcellulose) (HPC)): 105 % of control | T/C (dose: 200.0 mg/kg/injection, schedule: Q04DX003 (ip), vehicle: Klucel (hydroxypropylcellulose) (HPC)): 99 % of control | T/C (dose: 400.0 mg/kg/injection, schedule: Q04DX003 (ip), vehicle: Klucel (hydroxypropylcellulose) (HPC)): 100 % of control

COc1ccc(CC2C(=O)NC(C)C(=O)N(C)C3Cc4ccc(cc4)Oc4cc(ccc4OC)CC(C(=O)NC(C)C(=O)NC(C)C(=O)N2C)N(C)C3=O)cc1 (stereo not given)
T/C (dose: 0.5 mg/kg/injection, schedule: Q01DX009 (ip), vehicle: none): 161 % of control | T/C (dose: 1.0 mg/kg/injection, schedule: Q01DX009 (ip), vehicle: none): 152 % of control | T/C (dose: 2.0 mg/kg/injection, schedule: Q01DX009 (ip), vehicle: none): 190 % of control

O=C(O)c1ncn2c(=O)n(CCCl)nnc12
T/C [8]: 118 % of control
